Test results published in PMC9924089, “In Silico Discovery of Small Molecule Modulators Targeting the Achilles’ Heel of SARS-CoV-2 Spike Protein” (ACS Central Science, 2023).

target: prototypic SARS-CoV-2 spike protein (Severe acute respiratory syndrome coronavirus 2, UniProt P0DTC2, K986P/R682S/R683G/R685G/V987P); assay: biochemical; format: binding

Structure (SMILES)	Response at 50 μM (%)	Kd [µM]
O=C(CCn1ccc(=O)[nH]c1=O)N1CC(c2nc(-c3cccc(Cl)c3)no2)C1 [F6064-2602]	22.3%	–
CCCCCCCC/C=C\CCCCCCCC(=O)O [OA, oleic acid, reference compound]	–	28.5
Cn1c(CSc2nc3ccccc3s2)nnc1SCC(=O)NCCO [C592-3799]	25.5%	–
COC(=O)c1ccc2c(c1)C(=O)/C(=C/c1ccc(-c3cccc(C(F)(F)F)c3)o1)O2 [C711-0480]	23.4%	–
CN(CCc1cnn(C)c1)C(=O)c1ccc(-c2ccccc2Cl)o1 [SPC-4]	30.4%	–
O=C(COc1ccc(-c2cnc3ccccc3n2)cc1)c1cccs1 [6420-3607]	11.9	–
CCC(=O)Nc1ccc(C(=O)OCC(=O)c2ccc(Cl)c(Cl)c2)cc1 [AJ-292/41945407]	7.7	–
CN(CCCO)C(=O)c1coc(COc2cccc(F)c2F)n1 [compound 11547730]	14.9	–
COc1cccc(C(=O)COC(=O)c2ccc(O)cc2O)c1 [SPC-1]	46%	–
O=C(CCn1ccc(=O)[nH]c1=O)OCc1cc(-c2ccco2)on1 [F2496-3133]	21.1%	–
COCCNC(=O)N1CC(c2nc(-c3cccc(Cl)c3)no2)C1 [F6064-2993]	9.8	–
CC(=O)n1ccc2ccc(C(=O)CSc3nnc(-c4cccnc4)n3C)cc21 [K822-0272]	13.8	–
COc1ccc(-c2noc(CSc3nnc(-c4ccccc4)n3C)n2)cc1 [SPC-5]	46.1%	–
CCCCCC(=O)Oc1ccc(/N=N/c2ccc(C#N)cc2)cc1 [0054-0201]	23.5%	–
COc1ccc(-c2cc(COC(=O)CC3CCCCC3)no2)cc1 [F2496-0660]	10.1	–
CC(=O)Nc1ccc(Oc2ccc3c(c2)C(=O)N(c2cccc(C)c2)C3=O)cc1 [0584-0466]	21.5%	–
Cc1nc(C(F)(F)F)ccc1-c1nnc(SCc2ccc(OC(F)(F)F)cc2)o1 [compound 9502]	26.3%	–
Cc1nc(C)c(-c2nnc(SCc3nc(-c4cccs4)oc3C)o2)s1 [T6037875]	18.3	–
COc1ccc(-c2nnc(SCc3nc(-c4ccco4)no3)o2)cc1 [T6080959]	21.2%	–
NCc1cncc(-c2ccccc2)c1 [F1905-6556]	14.1	–
Cc1cc(C(=O)CSc2nnc(-c3nnc(-c4ccccc4)o3)o2)c(C)n1C [T6388553]	18.3	–
CCCCOC(=O)c1ccc(NC(=O)c2cc(=O)c(OC)co2)cc1 [F5449-0108]	15.8	–
N#Cc1ccc(/N=C/c2cc([N+](=O)[O-])ccc2Cl)cc1 [AE-641/08724023]	19	–
CCCCOC(=O)c1ccc(OC(=O)c2cccc3ccccc23)cc1 [AN-652/43024838]	5.6	–
c1csc(-c2noc(CSc3nnc(NC4CC4)s3)n2)c1 [T6141058]	14.3	–
O=C(CSc1ccncc1)OCc1cc(-c2ccccc2F)on1 [F2496-3101]	14	–
COc1ccc(-n2nnc3c(SCC(=O)OCc4ccccc4)ncnc32)cc1 [F0682-1220]	9	–
CCN(CC)c1ccc(/C=N/c2ccc(S(N)(=O)=O)cc2)cc1 [2166-0281]	21	–

Structure (SMILES)	Response at 50 μM (%)	Kd [µM]
Cn1c(SCc2nc(-c3ccccc3)no2)nnc1-c1ccco1 [STL416744]	30.3%	–
Cn1c(SCc2nc(-c3ccccc3Cl)no2)nnc1-c1ccccc1F [SPC-3]	51.8%	–
COc1ccccc1-c1cc2c(=O)n(Cc3nc(-c4ccccn4)no3)ccn2n1 [F3382-3571]	8.9	–
CCOc1ccc(C(=O)COC(=O)c2ccc(NC(C)=O)cc2)cc1 [AK-918/42180074]	5.7	–
O=C(Oc1ccc(OC(=O)c2c(Cl)nsc2Cl)cc1)c1c(Cl)nsc1Cl [8002-0592]	14.4	–
O=C(OCc1cc(-c2cc3ccccc3o2)on1)c1ccc2[nH]cnc2c1 [F2496-3295]	16.2	–
Cc1ccc(-c2nc(CSc3nnc(-c4ccco4)o3)no2)cc1 [T6363271]	2.9	–
O=C(Cc1noc2ccccc12)N1CC(c2nc(-c3ccc[nH]c3=O)no2)C1 [F6064-7687]	9.3	–
CCCCC/C=C\C/C=C\CCCCCCCC(=O)O [LA, linoleic acid, reference compound]	–	34.2
CSc1nc(N)n2nc(C(C)(C)C)cc2n1 [compound 6536]	23.3%	–
CCCCCCCCOc1ccc(OC(=O)c2ccco2)cc1 [0606-5952]	24.2%	–
O=C(OCc1cc(-c2ccc(F)cc2F)on1)c1ccc2[nH]cnc2c1 [F2496-3037]	3.6	–
COc1ccc(/C=C/c2nn3c(Cc4ccccc4F)nnc3s2)cc1 [AP-501/43286897]	17.8	–
c1ccc(-c2nnc(SCCCSc3nnc(-c4ccccc4)o3)o2)cc1 [T6013936]	17.1	–
O=C(COC(=O)c1ccc(Cl)cc1Cl)c1ccc(OC(=O)c2ccco2)cc1 [AK-918/41968204]	5.4	–
CC(=O)Nc1ccc(-c2cn3cc(Sc4ccccc4)ccc3n2)cc1 [AQ-776/42801545]	19.5	–
COc1cccc(-c2ncc(CNC(=O)CC3NC(=O)NC3=O)s2)c1 (stereo not drawn) [compound 42995570]	16	–
COc1cccc(-c2noc(CCC(=O)Nc3cccnc3)n2)c1 [SPC-6]	35.9%	–
Cc1nc(CSCCC(=O)N2CCc3ccc([N+](=O)[O-])cc32)cs1 [SPC-2]	40.2%	–
O=C(CCn1ccc(=O)[nH]c1=O)NCc1cc(-c2ccccc2F)on1 [F2493-3278]	18.5	–
O=c1/c(=C/c2ccc(-c3cccc([N+](=O)[O-])c3)o2)sc2nc(-c3cccs3)nn12 [5629-0125]	16	–
O=C(Cc1cccnc1)N1CC(n2cc(COc3ccccc3)nn2)C1 [F6514-4048]	10.5	–
COc1cccc(/C=C2/N=C(c3ccc(NC(C)=O)cc3)OC2=O)c1 [2082-0203]	17.9	–
CCCCCCCOc1ccc(C2=N/C(=C/c3ccco3)C(=O)O2)cc1 [0782-7025]	12.8	–
O=S(=O)(NCC#CCOc1cccc(C(F)(F)F)c1)c1cccs1 [F6412-1980]	27.1%	–
Cc1cccc(-c2noc(CCc3nc(C4CCOC4)no3)n2)c1 (stereo not drawn) [compound 18297954]	16.5	–
CCCOC(=O)c1ccc(OCC(=O)c2ccc(O)cc2O)cc1 [F3139-1680]	13.9	–

target: SARS-CoV-2 spike protein (Severe acute respiratory syndrome coronavirus 2, UniProt P0DTC2, K986P/R682S/R683G/R685G/V987P); assay: not given

Structure (SMILES)	particles in the closed state (three RBD down)	particles in the open state with one RBD up [%]
O=C(O)CCCCCC(=O)N1CCc2ccc([N+](=O)[O-])cc21 [SPC-14]	about 48%	52
